Assay [1] has as its system MPO-positive leukocytes in intestinal muscularis. Put plainly: myeloperoxidase histochemistry, leukocyte recruitment into intestinal muscularis after SITx. Format: in vivo, rat. Here is the method: Muscularis whole mounts were prepared from the mid small intestine collected 24 hours post-operatively. Segments of intestine were immersed in KRB in a Sylgaard™-lined glass dish and pinned without stretching along the mesenteric border. The length and width of the segments were measured with a caliper. The […] was then opened along the mesenteric border and stretched to 150% of the length and 250% of the width. The mucosa and submucosa were removed using fine forceps, and the remaining tissue fixed in 100% denatured ethanol for 30 minutes. […] Tissues were mounted on glass slides using Gel/Mount™ (Biomedia Corp., Foster City, Calif.), cover-slipped and inspected by light microscopy (Nikon FXA, Fryer, Huntley, Ill.) at a magnification of 200×. Numbers of MPO-positive PMN's infiltrating the muscularis extemae were determined from the mean counts collected from five to six adjacent optical fields centered between the mesenteric and anti-mesenteric borders.

The subject of assay [2] is small intestinal circular muscle. The experiment in a line: in vitro circular muscle contractility (spontaneous and bethanechol-stimulated) after IM. Format: in vivo, mouse. The text has this: Surgical Manipulation. Mice were anesthetized with inhaled isoflurane and the abdomen opened by midline laparotomy. The small intestine was eventrated and gently compressed along its entire length using moistened sterile cotton applicators. This procedure is designed to simulate “running” of the bowel commonly performed during abdominal surgery in the clinical setting. The bowel was repositioned in the abdominal cavity and the incision closed by two layers of continuous sutures. The duration of the procedure was approximately 15 minutes and the animals moved freely about their cage within 20 minutes of withdrawal of anesthetic.
CO Inhalation Treatment. Mice housed in cages were placed in plexiglass chambers that were continuously ventilated with air or with air containing CO (250 ppm). A sampling port was provided to continuously monitor carbon monoxide concentrations within the chamber. Animals had free access to food and water at all times. Mice were exposed to CO or air 1 hour prior to laparotomy, removed for surgical manipulation, and then returned to the chamber for 24 hours. Mice not undergoing surgery were removed from the chamber for a similar length of time and then returned to the chamber for 24 hours.
Mice were anesthetized and killed by exsanguination at the end of the 24-hour chamber treatment with CO or room air. In vitro circular muscle mechanical activity was measured as previously described in Eskandari et al. (Am. J. Physiol. 273:G727-G734 (1997)). Briefly, a segment of mid small bowel was pinned in a Sylgard™ (Midland, Mich.) lined dissecting dish containing pre-oxygenated Krebs-Ringer-bicarbonate buffer (KRB; in mM: 137.4 Na^+, 5.9 K^+, 2.5 Ca^2+, 1.2 Mg^2+, 134 Cl^−, 15.5 HCO3^−, 1.2 H2PO4−, and 11.5 glucose), gassed with 97% O2/3% CO2 to establish a pH of 7.4. The intestine was opened along the mesenteric border, and the mucosa removed by stripping with fine forceps. Full-thickness strips of muscularis (1×6 mm) cut parallel to the circular muscle layer were mounted in standard horizontal mechanical organ chambers and were continuously superfused with preoxygenated KRB maintained at 37° C. One end of each strip was attached by ligature to a fixed post and the other to an isometric force transducer (WPI, Sarasota, Fla.). Strips were allowed to equilibrate for 1 hour, after which they were incrementally stretched to Lo (length at which maximal spontaneous contraction occurs). After a baseline recording period of 30 min, contractility-response curves were generated by exposing the tissues to increasing concentrations of the muscarinic agonist bethanechol (0.3 to 300 μM) for 10 minutes, followed by intervening 10-minute wash periods. Contractile activity was calculated by integrating the area under the trace. The response was normalized to the amount of tissue by converting the weight (1.03 mg/mm^2) and length of the strip to square millimeters of tissue, and reported as g/s/mm^2. Intestinal transit was measured in controls and manipulated animals 24 hours postoperatively by evaluating the intestinal distribution of a non-absorbable fluorescein-labeled dextran (MW 70,000). Animals were lightly sedated with isofluran and fed orally with labeled dextran (100 μl of 25 mg/ml stock solution). Ninety minutes after administration, the animal was sacrificed and the entire bowel from stomach to distal colon was collected. The contents of the stomach, small bowel (divided into 10 segments of equal length), the cecum, and colon (3 segments of equal length) were each minced in 1 ml of saline and mixed vigorously to release the dextran present in each segment. After pelleting the intestinal tissue and chyme, aliquots of the cleared supernatant were read in duplicate on a plate reader (CytoFluor II; excitation wavelength 530 nm and emission 590 nm) for quantification of the fluorescent signal in each bowel segment. […]

Entries after “also recorded” stand apart in the source; their conditions may differ.

With `[C-]#[O+]` [CO, carbon monoxide], the MPO-positive cells result in assay [1] (CO-treated control rats (unoperated)) is “rare”. The “mean number of MPO positive cells” value in assay [1] (SITx + CO, 24 hours after SITx, not statistically significant (p=0.08, n=6)) is listed as “decreased”. In assay [1] (SITx + CO, Table 2), the Inflammatory infiltrates is listed as 21 ± 3.2 /200x field. Moreover, the figures for the bethanechol-induced contractile activity result in assay [2] (IM + CO) and in assay [2] (control animals + CO) were “restored contractile activity to control levels” and “no effect”, respectively. The peak contractile force in assay [2] (IM + CO 250 ppm, 100 μM bethanechol) stood at 3.6±0.7 g/s/mm^2; in assay [2] (control mice, CO alone, bethanechol), 3.2±0.5 g/s/mm^2. In assay [2] (IM mice treated with CO), the “spontaneous contractile activity (rythmicity)” value is “significantly improved; also recorded: restored”. For the same molecule, the spontaneous contractility result in assay [2] (control mice + CO 24 hr) is reported as “no effect”.

Values taken from US7687079B2, “Methods of treating ileus” (priority 2002, dated 2010).
